Structures can show the parent of a compound that is named as a salt.
Assay: Particle size distribution (Sympatec) of spray dried, ultrasound treated particles
Format: physicochemical
Excerpt: Preferably the active particles of the invention have a volume diameter of less than 10 μm, more preferably at least 90 wt % of the active ingredient particles in a given composition have a diameter equal to or lower than 10 μm as determined by measuring the characteristic equivalent sphere diameter, known as volume diameter, by laser diffraction as described above, preferably using a Malvern or equivalent apparatus. The parameters taken into consideration are the volume diameters (VD) in microns of 10%, 50% and 90% of the particles expressed as d(10), d(50) and d(90), respectively, which correspond to the mass diameter assuming a size independent density for the particles.
Fenoterol hydrobromide (5 g) was dissolved in 100 mL of methanol. The samples of Fenoterol hydrobromide powder collected in the ultrasonic chamber were produced using a Büchi-290 laboratory-scale spray dryer (Büchi, Switzerland). The solution was atomized using nitrogen at 7 bar flowing at approximately at 10 Lpm (Liter/minute). The aspirator was set at 100% and flow rate of solution was set to […]. The gas temperature was set to 120° C. Fenoterol hydrobromide particles were collected from both the cyclone separator and the PTFE bag filter assembly. The resultant amorphous particles contained 3000 ppm (0.3% w/w) residual methanol. The particles were placed into an ultrasonic chamber fitted with a 20 kHz ultrasonic transducer on its base (Prosonix SL 10) as shown in FIG. 8. The chamber was heated to 40° C. using a thermoregulated water jacket. Ultrasound at 20 W power was applied between 30 minutes and 2 hour. The resulting particles were characterized by optical microscopy and DSC (Differential Scanning Calorimetry). The size of the particles were typically in the range of 1-7 μm. In this specific example d(10)=0.91 μm; d(50)=1.76 μm; d(90)=3.38 μm (see FIG. 4).

[1] = spray dried particles after dry powder ultrasound treatment, FIG. 4

**Q.** What does the source list for `CC(Cc1ccc(O)cc1)NCC(O)c1cc(O)cc(O)c1` (stereo not shown) [Fenoterol hydrobromide]?
**A.** size of the particles (spray dried particles after dry powder ultrasound treatment (20 kHz, 20 W, 40° C., 30 minutes to 2 hour), typical range): 1-7 μm; d(10) [1]: 0.91 μm; d(50) [1]: 1.76 μm; d(90) [1]: 3.38 μm

From patent publication US8771744B2, “Barrier composition” (Prosonix Limited, priority 2009, dated 2014)
